# Experimental data published in publication PMC10287566, “Signaling-specific inhibition of the CB1 receptor for cannabis use disorder: phase 1 and phase 2a randomized trials” (Nature Medicine, 2023).
# How the values were obtained:
# [1] = test system: volunteers with CUD; assay: Phase 2a study, precipitated withdrawal, mood and sleep; format: in vivo, human
# Description: In addition to general safety assessment of vital signs, clinical chemistry and AEs, symptoms of cannabis withdrawal were assessed by daily measures of food intake, body weight, sleep efficiency[23],[41],[42] and mood[22]. […]
# We measured seven subscales of the 44-item VAS (‘Miserable’, ‘Anxious’, ‘Tired’, ‘Confused’, ‘Irritable’, ‘Social’ and ‘Bad effect’). […] Ratings were then done repeatedly (five times at 20, 40, 60, 90 and 120 min after cannabis).
# [2] = test system: THC behavioral effects; assay: Inhibition of THC effects in vivo (summary over behavioral models); set-up: species or system mice, rats and non-human primates
# Description: Statistical analyses were carried out using GraphPad Prism, Statistica (Statsoft) or SigmaPlot (Systat Software) software. […] When appropriate, significant main effects were analyzed by subsequent multiple paired comparisons or multiple comparisons versus the control group using the appropriate post hoc test (Dunnett, Tukey or Sidak test). Different but similar post hoc tests were used because the experiments were performed by independent research groups that used similar but not identical statistical procedures. […] For non-parametric analysis, a Kruskal–Wallis ANOVA was used, followed, when appropriate, by the Mann–Whitney test for pairwise comparisons. Unless otherwise stated, all the performed statistical tests were two-sided. The ID50 or IC50 was estimated by nonlinear regression using the ‘log(inhibitor) versus response’ equation model with GraphPad Prism software. All results are expressed as mean ± s.e.m. The significance threshold was set at P < 0.05.
# [3] = molecular target: GR (glucocorticoid receptor) (Homo sapiens, UniProt P04150); assay: Eurofins binding screen; settings: read-out: Percent inhibition of control specific binding
# [4] = test system: mice; assay: Anxiety-related behavior, elevated plus maze, repeated treatment; format: in vivo; settings: mice, elevated plus maze, highest dose tested 15 mg/kg
# Text: Anxiety-like behaviors were studied in the elevated plus maze (EPM), a rodent model used to evaluate the putative anxiogenic or anxiolytic effects of pharmacological compounds. Depression-related behaviors were studied using the sucrose preference test as a model of anhedonia, one of the cardinal symptoms of depression.
# The EPM apparatus comprises four elevated arms arranged in a cross-like shape, with the two opposite arms enclosed by walls and the other two arms open. For all experiments, mice were placed in the center of the EPM and were free to explore the maze for 5 min after receiving the treatment. The time spent and the number of entries into the open and closed arms were measured by an automatic video tracking system (EthoVision XT version 12, Noldus Information Technology). A decrease in the percentage of visits and/or the time spent in open arms is considered an index of increased anxiety.
# The EPM assessment was done on day 26, and the sucrose preference test was done on day 28.
# [5] = test system: mice; assay: THC-induced impairment of long-term memory (object recognition); format: in vivo
# [6] = molecular target: T1, hCB1 point mutant p.E1.49G (Homo sapiens, UniProt P21554, E133G); assay: THC-induced decrease in cellular respiration, HEK293 cells with mutant hCB1; format: cell-based; settings: HEK293, hCB1 p.E1.49G, THC 1 µM
# T1 construct: expressed in transfected cells; host or cells: HEK293
# Description: After 15 min of incubation, THC (1 µM, dissolved in ethanol 0.0034%) or vehicle was added in the culture dishes for 30 min.
# Cellular respiration was measured in a calibrated oxygraph (Oxygraph-2k, Oroboros Instruments) equipped with a Clark electrode and DatLab software. Oxygen consumption (OC) rate was used to measure cellular respiration.
# [7] = test system: CD-1 Swiss male mice; assay: i.v. self-administration of WIN55,212-2 in mice; format: in vivo
# Description: Before the start of the self-administration sessions, mice were implanted under anesthesia with catheters into the right jugular vein. […] Mice were trained under a fixed ratio 1 (FR1) schedule of reinforcement.
# Two-hour daily self-administration sessions were conducted 6 d per week for 18 d. Mice received corn oil vehicle (2 ml kg^–1) orally on days 9 and 10 to be habituated to the oral gavage procedure.
# [8] = test system: mice; assay: THC-induced impairment of reality testing; format: in vivo
# [9] = Self-administration of WIN 55,212-2, mice
# T1 sequence (P21554 whole entry E133G): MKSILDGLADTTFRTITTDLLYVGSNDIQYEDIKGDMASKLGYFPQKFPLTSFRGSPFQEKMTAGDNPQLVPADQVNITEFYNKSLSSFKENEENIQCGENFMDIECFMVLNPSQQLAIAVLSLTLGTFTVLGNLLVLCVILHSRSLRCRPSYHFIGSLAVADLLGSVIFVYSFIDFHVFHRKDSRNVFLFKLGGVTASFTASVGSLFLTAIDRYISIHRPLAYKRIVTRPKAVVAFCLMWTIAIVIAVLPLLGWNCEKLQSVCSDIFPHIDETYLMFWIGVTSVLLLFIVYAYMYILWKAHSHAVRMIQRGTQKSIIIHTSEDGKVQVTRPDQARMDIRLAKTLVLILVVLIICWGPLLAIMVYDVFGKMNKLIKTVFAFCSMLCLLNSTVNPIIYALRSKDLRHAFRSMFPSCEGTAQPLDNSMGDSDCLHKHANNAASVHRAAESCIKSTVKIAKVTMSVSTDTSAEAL
# Chain of GR (glucocorticoid receptor) (P04150 whole entry): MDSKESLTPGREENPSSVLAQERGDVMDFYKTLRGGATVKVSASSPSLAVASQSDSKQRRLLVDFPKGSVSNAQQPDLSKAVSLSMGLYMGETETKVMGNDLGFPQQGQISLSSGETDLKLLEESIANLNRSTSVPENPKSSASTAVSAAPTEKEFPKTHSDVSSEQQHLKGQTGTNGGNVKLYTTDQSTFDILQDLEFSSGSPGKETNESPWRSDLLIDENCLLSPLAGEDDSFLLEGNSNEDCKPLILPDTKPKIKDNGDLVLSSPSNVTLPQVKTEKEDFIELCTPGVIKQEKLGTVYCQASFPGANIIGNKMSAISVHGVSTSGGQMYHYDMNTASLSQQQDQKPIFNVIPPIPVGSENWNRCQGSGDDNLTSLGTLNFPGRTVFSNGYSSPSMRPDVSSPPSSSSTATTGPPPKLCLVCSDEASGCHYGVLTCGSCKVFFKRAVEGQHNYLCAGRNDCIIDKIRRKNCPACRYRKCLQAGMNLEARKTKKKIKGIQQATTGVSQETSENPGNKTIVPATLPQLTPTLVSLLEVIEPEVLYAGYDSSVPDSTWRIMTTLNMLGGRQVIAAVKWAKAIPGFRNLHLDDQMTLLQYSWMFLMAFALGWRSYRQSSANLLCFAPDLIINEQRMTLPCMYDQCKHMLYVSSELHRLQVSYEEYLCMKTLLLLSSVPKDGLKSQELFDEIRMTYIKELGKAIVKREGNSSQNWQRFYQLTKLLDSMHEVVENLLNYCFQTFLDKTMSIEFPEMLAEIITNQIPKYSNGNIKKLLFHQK
smiles,measurement,setting,value
"COc1ccc(CO[C@H]2CC[C@@]3(C)C(=CC[C@H]4[C@@H]5CC[C@H](C(C)=O)[C@@]5(C)CC[C@@H]43)C2)cc1 [AEF0117, 3β-(4-methoxybenzyloxy)pregn-5-en-20-one]","'Social' subscale rating after smoking cannabis, mean (SEM)","[1]; 0.06 mg cohort, Day 1",66.9 (4.3)
same,"'Social' subscale, AEF0117-Placebo","[1]; 0.06 mg cohort, Day 1",-5.9
same,"'Social' subscale rating after smoking cannabis, mean (SEM)","[1]; 0.06 mg cohort, Day 2",67.4 (5.8)
same,"'Social' subscale, AEF0117-Placebo","[1]; 0.06 mg cohort, Day 2",-3.1
same,"'Social' subscale rating after smoking cannabis, mean (SEM)","[1]; 0.06 mg cohort, Day 3",64.4 (6.0)
same,"'Social' subscale, AEF0117-Placebo","[1]; 0.06 mg cohort, Day 3",-6.6
same,"'Social' subscale rating after smoking cannabis, mean (SEM)","[1]; 0.06 mg cohort, Day 4",63.9 (5.6)
same,"'Social' subscale, AEF0117-Placebo","[1]; 0.06 mg cohort, Day 4",-7.8
same,"'Social' subscale rating after smoking cannabis, mean (SEM)","[1]; 0.06 mg cohort, Day 5",64.0 (5.8)
same,"'Social' subscale, AEF0117-Placebo","[1]; 0.06 mg cohort, Day 5",-6.0
same,"'Social' subscale rating after smoking cannabis, mean (SEM)","[1]; 1 mg cohort, Day 1",71.9 (5.5)
same,"'Social' subscale, AEF0117-Placebo","[1]; 1 mg cohort, Day 1",3.9
same,"'Social' subscale rating after smoking cannabis, mean (SEM)","[1]; 1 mg cohort, Day 2",71.4 (5.2)
same,"'Social' subscale, AEF0117-Placebo","[1]; 1 mg cohort, Day 2",1.3
same,"'Social' subscale rating after smoking cannabis, mean (SEM)","[1]; 1 mg cohort, Day 3",71.1 (5.6)
same,"'Social' subscale, AEF0117-Placebo","[1]; 1 mg cohort, Day 3",0.1
same,"'Social' subscale rating after smoking cannabis, mean (SEM)","[1]; 1 mg cohort, Day 4",67.0 (5.9)
same,"'Social' subscale, AEF0117-Placebo","[1]; 1 mg cohort, Day 4",-6.0
same,"'Social' subscale rating after smoking cannabis, mean (SEM)","[1]; 1 mg cohort, Day 5",69.5 (6.6)
same,"'Social' subscale, AEF0117-Placebo","[1]; 1 mg cohort, Day 5",-1.6
same,difference between AEF0117 and placebo on the 'Social' subscale,"[1]; 100-mm scale, after cannabis",< 8 mm
same,precipitation of cannabis withdrawal,"[1]; Phase 2a, 0.06 and 1 mg",little to suggest that AEF0117 precipitated cannabis withdrawal
same,"'Irritable' subscale, effect of treatment","[1]; Treatment x Day x Time, before cannabis",small but significant effect
same,most observed ID50 for inhibiting the effects of THC,"[2]; mice and non-human primates, oral",5 µg/kg
same,most observed ID50 for inhibiting the effects of THC,"[2]; mice, rats and non-human primates",5 µg/kg
same,ID100 for THC effects in fewer cases,"[2]; oral, 3 h before THC",1.5 µg/kg
same,most frequently observed ID100 for THC effects,"[2]; oral, 3 h before THC",15 µg/kg
same,inhibition at 10 µM,[3],22%
same,Overall effect: increase in anxiety-related behaviors,[4],No
same,THC's effects on long-term object recognition memory,[5],inhibited
same,% Inhibition,[5]; Impairment of long-term memory,100%
same,ID100,[5]; Impairment of long-term memory,≤ 5 µg/kg
same,effect on cellular respiration with mutant hCB1,[6],loss of effect
same,% Inhibition,[7]; [9],80%
same,ID50,[7]; [9],5 µg/kg
same,ID100,[7]; [9],15 µg/kg
same,"i.v. self-administration of WIN55,212-2","[7]; mice, 15 µg kg^−1 oral",significantly reduced
same,THC impairment in reality testing,[8],inhibited
same,% Inhibition,[8]; Impairment of reality testing,100%
same,ID100,[8]; Impairment of reality testing,≤ 15 µg/kg
